IC50 data for 15 molecules are collected here from US9353101B2 (Merck Sharp & Dohme Corp., priority 2012, dated 2016).

The target of this test is CETP (Homo sapiens (Human), UniProt P11597). Briefly: In vitro radioactive assay of CETP-catalyzed CE and TG transfer (RTA assay), 95% human serum. The test is classed as biochemical. Conditions: RTA assay in 95% human serum; read-out: RTA IC50 (CETP Inhibition). Here is the method: In Vitro Radioactive Assays of CETP-Catalyzed CE and TG Transfer (RTA Assay)
Reagents and sources are: [3H] cholesteryl oleate (GE #TRK.886), [3H] Triolein (Perkin-Elmer NET-431), Butylated hydroxyl toluene (Aldrich, #D4740-4), DOPC (Sigma, # P6354), Sodium Bromide (Fisher scientific #S255-500), PEG 8000 (Fisher, #BP233-1), and human HDL (Intracel Corp #RP-036).
An in vitro assay for determining IC50's to identify compounds that inhibit CETP transfer activity is performed based on a modification of a published method (Morton and Zilversmit, (1981) A plasma inhibitor of triglyceride and cholesteryl ester transfer activities, J. Biol. Chem. 256(23), 11992-11995). The ability of inhibitors to alter CETP activity is performed using two different assays: one using recombinant CETP and one using an endogenous plasma source of CETP. Both assays measure the transfer of [3H] cholesteryl oleate or [3H] triolein from exogenous LDL to HDL.
Radiolabeled donor particles are generated by first combining 100 μl of 200 μM butylated hydroxyl toluene in CHCl3, 216 μL of 21.57 mM DOPC in EtOH, and either 500 μCi [3H]-triolein (Perkin Elmer #NET-431) or 500 μCi [3H]-cholesteryl oleate (GE #TRK886) in a glass tube. Reagents are mixed, dried under nitrogen, and then resuspended in 2 mL of 50 mM Tris, 27 μM EDTA at pH 7.4. After a brief vortex, the solution is sonicated until clear and mixed with 20 mL of fresh human serum. The mixture is incubated overnight at 37° C. The [3H] labeled LDL substrate is separated at 1.063 g/ml density by sequential ultracentrifugal flotation in NaBr according to the method by (Havel, Eder et al. 1955; Chapman, Goldstein et al. 1981). Once isolated the particles are dialyzed 3× in CETP buffer (50 mM Tris, pH 7.4, 100 mM NaCl, 1 mM EDTA). Human HDL is purchased from Intracel and used as the acceptor particles.
Transfer assays are performed in a 96 or 384-well v-bottom polypropylene plate. For the RTA using recombinant CETP (2% RTA), an assay cocktail is prepared with the final concentrations 128 μg/mL HDL, 20 nM rCETP, 2% human serum, and 1×CETP buffer. 1 μL of each test compound diluted in DMSO is added to 47 μL of assay cocktail per well and incubated at 37° C. for 1 hour. To initiate the transfer reaction, 2 μL radiolabeled LDL is added. After an additional 60 min of incubation at 37° C., the transfer action is terminated by precipitation of LDL with an equal volume of 20% W/V PEG 8000. The plates are centrifuged at 2000 rpm for 30 minutes at 4° C. A 40 μL aliquot of the HDL-containing supernatant is transferred to a Packard Optiplate™ with 200 μL of MicroScint™ 20. After mixing, plates are counted by liquid scintillation. Counts present in the supernatant for blanks (wells containing only HDL acceptor, CETP buffer and DMSO) are subtracted from those containing test compounds and used to correct for non-specific transfer.
For the transfer assay using endogenous CETP from serum (95% RTA), the same procedure is used except that human serum is added such that a final concentration of serum of 95% of the total assay volume is achieved, yielding a concentration of approximately 15 nM endogenous CETP in the assay. This is then combined with HDL and CETP buffer and the reaction proceeds as above and is terminated as described.
Comparison of the counts of samples with inhibitors to an uninhibited (DMSO only) positive control yield a percent inhibition. A plot of percent inhibition vs. log of inhibitor concentration, fit to a Sigmoidal 4 parameter equation is used to calculate IC50.
Starting materials are commercially available or are made using known procedures or as shown below. The examples may be synthesized using the general schemes provided below. The data reported for the examples below were obtained using the RTA assay in 95% human serum.

Each structure is given as a SMILES string.

CETP, sequence (P11597 18-493 limits assumed): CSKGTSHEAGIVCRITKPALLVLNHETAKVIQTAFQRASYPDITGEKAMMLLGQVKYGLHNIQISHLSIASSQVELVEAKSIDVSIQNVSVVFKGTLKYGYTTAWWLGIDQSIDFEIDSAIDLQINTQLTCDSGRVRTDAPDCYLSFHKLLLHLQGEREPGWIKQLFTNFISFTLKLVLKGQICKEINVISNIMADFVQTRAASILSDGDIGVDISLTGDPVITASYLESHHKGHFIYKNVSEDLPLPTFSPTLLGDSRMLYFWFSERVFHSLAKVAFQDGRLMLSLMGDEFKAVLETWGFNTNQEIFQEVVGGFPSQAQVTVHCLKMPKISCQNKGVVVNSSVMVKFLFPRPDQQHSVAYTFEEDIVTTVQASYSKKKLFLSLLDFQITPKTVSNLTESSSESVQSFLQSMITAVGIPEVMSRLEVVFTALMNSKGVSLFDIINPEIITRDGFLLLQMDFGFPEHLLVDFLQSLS

Broadly, the IC50 is the concentration that inhibits the measured activity by half. As for `COc1ncc(-c2c(C)cc(-c3n[nH]c(=O)o3)cc2C)cc1-c1cnc(N2CC(F)C2)nc1CN1C(=O)O[C@H](c2cc(C(F)(F)F)cc(C(F)(F)F)c2)[C@@H]1C` [Example 33, 5-(4-{5-[4-({(4S,5R)-5-[3,5-Bis(trifluoromethyl)phenyl]-4-methyl-2-oxo-1,3-oxazolidin-3-yl}methyl)-2-(3-fluoroazetidin-1-yl)pyrimidin-5-yl]-6-methoxypyridin-3-yl}-3,5-dimethylphenyl)-1,3,4-oxadiazol-2(3H)-one], the IC50 turned out to be 8 nM. In the case of `COc1ncc(-c2c(C)cc(C(=O)O)cc2C)cc1-c1cnc(N2CCOCC2)nc1CN1C(=O)O[C@H](c2cc(C(F)(F)F)cc(C(F)(F)F)c2)[C@@H]1C` [Example 34, 4-{5-[4-({(4S,5R)-5-[3,5-Bis(trifluoromethyl)phenyl]-4-methyl-2-oxo-1,3-oxazolidin-3-yl}methyl)-2-(morpholin-4-yl)pyrimidin-5-yl]-6-methoxypyridin-3-yl}-3,5-dimethylbenzoic acid] it was 10 nM; in that of `COc1ncc(-c2c(C)cc(-c3n[nH]c(=O)o3)cc2C)cc1-c1cnc(N2CCOCC2)nc1CN1C(=O)O[C@H](c2cc(C(F)(F)F)cc(C(F)(F)F)c2)[C@@H]1C` [Example 35, 5-(4-{5-[4-({(4S,5R)-5-[3,5-Bis(trifluoromethyl)phenyl]-4-methyl-2-oxo-1,3-oxazolidin-3-yl}methyl)-2-(morpholin-4-yl)pyrimidin-5-yl]-6-methoxypyridin-3-yl}-3,5-dimethylphenyl)-1,3,4-oxadiazol-2(3H)-one], 10 nM.

For `COc1ncc(-c2ccc(C(=O)O)cc2C)cc1-c1cnc(N2CC(F)C2)nc1CN1C(=O)O[C@H](c2cc(C(F)(F)F)cc(C(F)(F)F)c2)[C@@H]1C` [Example 36, 4-{5-[4-({(4S,5R)-5-[3,5-Bis(trifluoromethyl)phenyl]-4-methyl-2-oxo-1,3-oxazolidin-3-yl}methyl)-2-(3-fluoroazetidin-1-yl)pyrimidin-5-yl]-6-methoxypyridin-3-yl}-3-methylbenzoic acid], the IC50 turned out to be 12 nM.

On to `COc1ncc(-c2ccc(C(=O)Nc3nnn[nH]3)cc2C)cc1-c1cnc(N2CC(F)C2)nc1CN1C(=O)O[C@H](c2cc(C(F)(F)F)cc(C(F)(F)F)c2)[C@@H]1C` [Example 37, 4-{5-[4-({(4S,5R)-5-[3,5-Bis(trifluoromethyl)phenyl]-4-methyl-2-oxo-1,3-oxazolidin-3-yl}methyl)-2-(3-fluoroazetidin-1-yl)pyrimidin-5-yl]-6-methoxypyridin-3-yl}-3-methyl-N-(1H-tetrazol-5-yl)benzamide], for which the IC50 came out at 10 nM. On to `COc1ncc(-c2ccc(-c3n[nH]c(=O)o3)cc2C)cc1-c1cnc(N2CC(F)C2)nc1CN1C(=O)O[C@H](c2cc(C(F)(F)F)cc(C(F)(F)F)c2)[C@@H]1C` [Example 38, 5-(4-{5-[4-({(4S,5R)-5-[3,5-Bis(trifluoromethyl)phenyl]-4-methyl-2-oxo-1,3-oxazolidin-3-yl}methyl)-2-(3-fluoroazetidin-1-yl)pyrimidin-5-yl]-6-methoxypyridin-3-yl}-3-methylphenyl)-1,3,4-oxadiazol-2(3H)-one], for which the IC50 worked out at 12 nM. Take `COc1ncc(-c2ccc(C(=O)O)cc2C)cc1-c1cnc(N2CCOCC2)nc1CN1C(=O)O[C@H](c2cc(C(F)(F)F)cc(C(F)(F)F)c2)[C@@H]1C` [Example 39, 4-{5-[4-({(4S,5R)-5-[3,5-Bis(trifluoromethyl)phenyl]-4-methyl-2-oxo-1,3-oxazolidin-3-yl}methyl)-2-(morpholin-4-yl)pyrimidin-5-yl]-6-methoxypyridin-3-yl}-3-methylbenzoic acid]: the 50% inhibitory concentration (IC50) amounted to 13 nM. The result for `COc1ncc(-c2ccc(-c3n[nH]c(=O)o3)cc2C)cc1-c1cnc(N2CCOCC2)nc1CN1C(=O)O[C@H](c2cc(C(F)(F)F)cc(C(F)(F)F)c2)[C@@H]1C` [Example 40, 5-(4-{5-[4-({(4S,5R)-5-[3,5-Bis(trifluoromethyl)phenyl]-4-methyl-2-oxo-1,3-oxazolidin-3-yl}methyl)-2-(morpholin-4-yl)pyrimidin-5-yl]-6-methoxypyridin-3-yl}-3-methylphenyl)-1,3,4-oxadiazol-2(3H)-one] reads 29 nM; that for `COc1ncc(-c2ccc(C(=O)Nc3nnn[nH]3)cc2C)cc1-c1cnc(N2CCOCC2)nc1CN1C(=O)O[C@H](c2cc(C(F)(F)F)cc(C(F)(F)F)c2)[C@@H]1C` [Example 41, 4-{5-[4-({(4S,5R)-5-[3,5-Bis(trifluoromethyl)phenyl]-4-methyl-2-oxo-1,3-oxazolidin-3-yl}methyl)-2-(morpholin-4-yl)pyrimidin-5-yl]-6-methoxypyridin-3-yl}-3-methyl-N-(1H-tetrazol-5-yl)benzamide], 11 nM; that for `COc1ncc(-c2ccc(C(=O)O)cc2C)cc1-c1cnc(N2CC(F)(F)C2)nc1CN1C(=O)O[C@H](c2cc(C(F)(F)F)cc(C(F)(F)F)c2)[C@@H]1C` [Example 42, 4-{5-[4-({(4S,5R)-5-[3,5-Bis(trifluoromethyl)phenyl]-4-methyl-2-oxo-1,3-oxazolidin-3-yl}methyl)-2-(3,3-difluoroazetidin-1-yl)pyrimidin-5-yl]-6-methoxypyridin-3-yl}-3-methylbenzoic acid], 9 nM. In the case of `COc1ncc(-c2ccc(C(=O)O)cc2C)cc1-c1cnc(-n2ccnc2)nc1CN1C(=O)O[C@H](c2cc(C(F)(F)F)cc(C(F)(F)F)c2)[C@@H]1C` [Example 43, 4-{5-[4-({(4S,5R)-5-[3,5-Bis(trifluoromethyl)phenyl]-4-methyl-2-oxo-1,3-oxazolidin-3-yl}methyl)-2-(1H-imidazol-1-yl)pyrimidin-5-yl]-6-methoxypyridin-3-yl}-3-methylbenzoic acid], the IC50 was 109 nM. The result for `COc1ncc(-c2ccc(C(=O)O)cc2C)cc1-c1cnc(N2CC(F)C2)nc1CN1C(=O)O[C@H](c2cc(F)cc(F)c2)[C@@H]1C` [Example 44, 4-{5-[4-{[(4S,5R)-5-(3,5-Difluorophenyl)-4-methyl-2-oxo-1,3-oxazolidin-3-yl]methyl}-2-(3-fluoroazetidin-1-yl)pyrimidin-5-yl]-6-methoxypyridin-3-yl}-3-methylbenzoic acid] reads 35 nM; that for `COc1ncc(-c2ccc(C(=O)O)cc2C)cc1-c1cnc(N2CC(F)C2)nc1CN1C(=O)O[C@H](c2cccc(OC(F)(F)F)c2)[C@@H]1C` [Example 45, 4-{5-[2-(3-Fluoroazetidin-1-yl)-4-({(4S,5R)-4-methyl-2-oxo-5-[3-(trifluoromethoxy)phenyl]-1,3-oxazolidin-3-yl}methyl)pyrimidin-5-yl]-6-methoxypyridin-3-yl}-3-methylbenzoic acid], 50 nM; that for `COc1ncc(-c2ccc(C(=O)O)cc2C)cc1-c1cnc(N2CC(F)C2)nc1CN1C(=O)O[C@H](c2cc(F)cc(C(F)(F)F)c2)[C@@H]1C` [Example 46, 4-{5-[2-(3-Fluoroazetidin-1-yl)-4-({(4S,5R)-5-[3-fluoro-5-(trifluoromethyl)phenyl]-4-methyl-2-oxo-1,3-oxazolidin-3-yl}methyl)pyrimidin-5-yl]-6-methoxypyridin-3-yl}-3-methylbenzoic acid], 12 nM.

Take `COc1ncc(-c2ccc(C(=O)O)cc2C)cc1-c1cnc(N2CC(F)(F)C2)nc1CN1C(=O)O[C@H](c2cc(F)cc(C(F)(F)F)c2)[C@@H]1C` [Example 47, 4-{5-[2-(3,3-Difluoroazetidin-1-yl)-4-({(4S,5R)-5-[3-fluoro-5-(trifluoromethyl)phenyl]-4-methyl-2-oxo-1,3-oxazolidin-3-yl}methyl)pyrimidin-5-yl]-6-methoxypyridin-3-yl}-3-methylbenzoic acid]: the IC50 was 9 nM.
